Columns and labels:
[1] = biological target: T1, Smo (smoothened), wild type hSmo (Homo sapiens, UniProt Q99835); assay: BODIPY-cyclopamine competition in hSmo-transfected HEK293 cells (microscopy and flow cytometry); assay type: cell-based
T1 construct: wild type hSmo expressed in HEK293 cells

[2] = biological target: T1, Smo (smoothened), wild type hSmo; assay: BODIPY-cyclopamine competition in hSmo-transfected HEK293 cells (positive control); assay type: cell-based

T1 sequence (Q99835 28-787): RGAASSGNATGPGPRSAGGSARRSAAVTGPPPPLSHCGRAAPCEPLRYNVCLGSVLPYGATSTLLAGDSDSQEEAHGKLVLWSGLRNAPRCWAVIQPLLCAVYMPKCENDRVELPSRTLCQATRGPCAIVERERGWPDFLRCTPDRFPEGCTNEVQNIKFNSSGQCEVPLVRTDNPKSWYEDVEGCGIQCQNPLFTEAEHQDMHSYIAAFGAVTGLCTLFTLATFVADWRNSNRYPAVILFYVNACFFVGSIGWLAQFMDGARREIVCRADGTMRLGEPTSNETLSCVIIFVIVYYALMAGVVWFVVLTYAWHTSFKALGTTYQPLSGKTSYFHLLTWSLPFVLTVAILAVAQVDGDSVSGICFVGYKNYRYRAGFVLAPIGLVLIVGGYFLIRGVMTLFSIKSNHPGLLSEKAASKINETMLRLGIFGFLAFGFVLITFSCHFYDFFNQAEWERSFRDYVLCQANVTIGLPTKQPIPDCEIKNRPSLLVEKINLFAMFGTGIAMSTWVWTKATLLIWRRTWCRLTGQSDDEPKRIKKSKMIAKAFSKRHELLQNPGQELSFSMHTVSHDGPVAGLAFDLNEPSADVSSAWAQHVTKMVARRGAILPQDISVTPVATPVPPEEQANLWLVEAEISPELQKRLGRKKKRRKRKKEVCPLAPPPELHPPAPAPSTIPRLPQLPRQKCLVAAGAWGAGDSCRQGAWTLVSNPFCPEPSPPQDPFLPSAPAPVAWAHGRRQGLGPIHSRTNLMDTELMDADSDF

Compound	BODIPY-cyclopamine competition in hSmo-transfected HEK293 cells (microscopy and) [1]	BODIPY-cyclopamine competition in hSmo-transfected HEK293 cells (positive contro) [2]
Cc1c(-c2ccnn2C)nnc(N2CCC(NC(=O)c3ccc(F)cc3C(F)(F)F)CC2)c1C [L-4]	there was a dose-dependent replacement of BODIPY-cyclopamine by L-4	
CC1=C2C[C@H]3[C@@H](CC=C4C[C@@H](O)CC[C@@]43C)[C@@H]2CC[C@]12O[C@@H]1C[C@H](C)CN[C@H]1[C@H]2C [cyclopamine]		It was similar to the positive control, cyclopamine
